Here are results for three compounds from patent publication US8716249B2, “Compositions and methods for improving cardiovascular health” (Energy Light LLC, priority 2008, dated 2014).

Where two headings read alike, the source gives them in different places.

For test [1] the following is noted: cited from earlier work.
Test [2] is described as follows: Comparison of EAA+arginine with fenofibrate in a similar population of elderly (FIG. 2).
The mark [3] stands for this setting: patients with mixed hyperlipidemia, 80 mg atorvostatin daily or 200 mg fenofibrate.

As for `CC(C)c1c(C(=O)Nc2ccccc2)c(-c2ccccc2)c(-c2ccc(F)cc2)n1CC[C@@H](O)C[C@@H](O)CC(=O)O` [atorvostatin], in test [1] (setting [3]), the “reduction of TGs” value was 65% and the “reduction of VLDL” value was 57%.

Turning to `CC(C)OC(=O)C(C)(C)Oc1ccc(C(=O)c2ccc(Cl)cc2)cc1` [fenofibrate], the “fall of plasma triglyceride concentration” value in test [2] (fenofibrate treatment for 60 days) is listed as “approximately 33%”. Further, the “effect on liver triglyceride” value in test [2] (treatment for 60 days) is “no significant effect”.

For `Cc1ccc(C)c(OCCCC(C)(C)C(=O)O)c1` [gemfibrozil], the “time to maximal effects on TG” value in test [1] (gemfibrozil treatment) was at most 4 weeks. For the same compound, the “decrease of TG concentrations” value is on record as 45% in test [1] (patients with hypertryglyceridemia and hypercholesterolemia); 38% in test [1] (patients with isolated hypercholesterolemia).
